Literature values, collected in patent publication US20230241194A1, “PRE-ERYTHROCYTIC MALARIA VACCINES” (PATH, priority 2020, published 2023).

Target: T1, TLR7 (Homo sapiens, UniProt Q9NYK1)
T1 sequence (Q9NYK1 27-1049): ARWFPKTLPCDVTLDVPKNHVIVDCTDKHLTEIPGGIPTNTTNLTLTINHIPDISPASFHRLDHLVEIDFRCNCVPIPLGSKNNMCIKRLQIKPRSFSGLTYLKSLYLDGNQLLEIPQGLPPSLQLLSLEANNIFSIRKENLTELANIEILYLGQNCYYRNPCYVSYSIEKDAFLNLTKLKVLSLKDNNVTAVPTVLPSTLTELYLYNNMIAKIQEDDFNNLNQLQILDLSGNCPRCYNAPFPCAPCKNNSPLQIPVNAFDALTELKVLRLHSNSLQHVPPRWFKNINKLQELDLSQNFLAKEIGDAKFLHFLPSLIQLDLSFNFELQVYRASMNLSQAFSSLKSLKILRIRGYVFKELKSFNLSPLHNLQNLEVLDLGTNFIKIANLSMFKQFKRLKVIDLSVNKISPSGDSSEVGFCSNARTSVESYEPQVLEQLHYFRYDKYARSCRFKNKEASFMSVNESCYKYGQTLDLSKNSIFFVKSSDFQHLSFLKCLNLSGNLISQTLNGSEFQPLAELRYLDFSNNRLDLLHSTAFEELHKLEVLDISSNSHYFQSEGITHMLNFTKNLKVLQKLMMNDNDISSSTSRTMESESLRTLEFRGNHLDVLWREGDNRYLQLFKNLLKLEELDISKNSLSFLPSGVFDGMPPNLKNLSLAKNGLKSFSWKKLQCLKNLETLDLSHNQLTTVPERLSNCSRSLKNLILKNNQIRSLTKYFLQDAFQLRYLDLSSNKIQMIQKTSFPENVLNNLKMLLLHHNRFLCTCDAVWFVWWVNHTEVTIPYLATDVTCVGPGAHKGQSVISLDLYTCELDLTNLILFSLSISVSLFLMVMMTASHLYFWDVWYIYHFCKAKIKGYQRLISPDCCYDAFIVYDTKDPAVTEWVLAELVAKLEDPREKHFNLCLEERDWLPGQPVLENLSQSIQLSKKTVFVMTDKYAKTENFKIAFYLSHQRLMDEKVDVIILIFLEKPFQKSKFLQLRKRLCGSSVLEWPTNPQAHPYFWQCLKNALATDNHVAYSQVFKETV
Settings: reported in PTL 1

TLR7 agonistic activity: having TLR7 agonistic activity
SMILES: CCC[C@@H](CCO)Nc1nc(N)nc(C)c1Cc1ccc(CN(C)CCNC(=O)CC/C(C)=C/CC/C(C)=C/CC/C(C)=C/CC/C=C(\C)CC/C=C(\C)CCC=C(C)C)cc1 [Compound A, (4E,8E,12E,16E,20E)-N-{2-[{4-[(2-amino-4-{[(3S)-1-hydroxyhexan-3-yl]amino}-6-methylpyrimidin-5-yl)methyl]benzyl}(methyl)amino]ethyl}-4,8,12,17,21,25-hexamethylhexacosa-4,8,12,16,20,24-hexaenamide]
